The record followed here is patent publication US20090030067A1, “Anti-proliferative combination therapy comprising satraplatin or jm118 and a taxane” ((GPC Biotech AG), priority 2005, published 2009).

SMILES strings stand for the structures.

For one data set, the system named is A129. The data set is described as follows: SRB cytotoxicity assay, parental A129 cell line. Particulars: 48 hours, mean and standard deviation. Format: cell-based. (The SRB assay estimates cell density from bound dye.)
The next data set concerns A129 cp80. The data set is described as follows: SRB cytotoxicity assay, cisplatin-resistant A129 cp80 cell line. Format: cell-based. How it is done: The parental non-mutated cell line A129 was used as control.
Briefly, cells were plated in 96 well dishes 24 hours prior to compound addition. The assay was terminated with the addition of cold TCA to a final concentration of 10% and the plates were incubated for one hour at 4° C. The plates were then washed 5 times with water and 100 μl of a Sulforhodamine B solution ([…]) was added to each well. The plate was then incubated for 10 minutes at room temperature before removal of unbound dye by washing with 1% acetic acid. The bound dye was solubilized with 10 mM Trizma base and the absorbance read at OD570.

The test system of data set [1] is human non small cell lung cancer (NSCLC) cell line H460. Description: H460 xenograft model, satraplatin and docetaxel.
The subject of data set [2] is human H460 non small cell lung cancer (NSCLC) cell line. Description: H460 xenograft model, satraplatin and paclitaxel.
The mark [3] stands for this setting: docetaxel 25 mg/kg iv d7, d14, of 10 animals.
The mark [4] stands for this setting: paclitaxel 25 mg/kg/day iv, Exp. A.
[5] abbreviates: paclitaxel 25 mg/kg/day iv, Exp. B.
The mark [6] stands for this setting: paclitaxel 40 mg/kg/day iv, Exp. A.
[7] abbreviates: paclitaxel 40 mg/kg/day iv, Exp. B.
[8] abbreviates: satraplatin 35 mg/kg/day po, Exp. B.
The mark [9] stands for this setting: satraplatin 40 mg/kg/day po, Exp. B.
The mark [10] stands for this setting: satraplatin 50 mg/kg/day po, Exp. A.

In general, IC50 refers to the concentration at which inhibition is half-maximal. Take `N.N.[Cl][Pt][Cl]` [Cisplatin, cisplatin]: the IC50 in the data set with A129 was 0.23 µM; with A129 cp80 (48 hours, SRB assay, mean and standard deviation), 15.1 µM. Besides, the “RR (relative resistance)” value in the data set on A129 cp80 (A129 cp80 versus A129) is reported as 80 +/− 25.
Take `CC(=O)O[C@@]12CO[C@@H]1C[C@H](O)[C@@]1(C)C(=O)[C@H](O)C3=C(C)[C@@H](OC(=O)[C@H](O)[C@@H](NC(=O)OC(C)(C)C)c4ccccc4)C[C@@](O)([C@@H](OC(=O)c4ccccc4)[C@H]21)C3(C)C` [Docetaxel, N-debenzoyl-N-tert-butoxycarbonyl-10-deacetyl paclitaxel]: in data set [1] (docetaxel 25 mg/kg iv d7, d14), the “LCK (Td = 2.7)” value was found to be 0.76. Moreover, in data set [1] (docetaxel 25 mg/kg iv d7, d14, maximum observed on day 13), the “Max TGI (d)” value is reported as 64.7 (13) %. For the same compound, in data set [1] (setting [3]), the “CR (number of animals with complete tumor regression)” value is 0, the Cure is 0, the “PR (number of animals with partial tumor regression)” value is given as 0 and the “Toxic Deaths” value is reported as 0.
Take `CC(=O)O[C@H]1C(=O)[C@@]2(C)[C@H]([C@H](OC(=O)c3ccccc3)[C@]3(O)C[C@H](OC(=O)[C@H](O)[C@@H](NC(=O)c4ccccc4)c4ccccc4)C(C)=C1C3(C)C)[C@]1(OC(C)=O)CO[C@@H]1C[C@@H]2O` [Paclitaxel, paclitaxel]: the LCK in data set [2] (setting [4]) is reported as 0.6; in data set [2] (setting [5]), 0.7; in data set [2] (setting [6]), 0.7; in data set [2] (setting [7]), 1.0. Also, the “Max TGI %” value worked out at 56% in data set [2] (setting [4]), 47% in data set [2] (setting [5]), 64% in data set [2] (setting [6]) and 59% in data set [2] (setting [7]). For the same compound, the Toxic deaths/total in data set [2] (setting [4]), in data set [2] (setting [5]), in data set [2] (setting [6]) and in data set [2] (setting [7]) was 0/10 each time. In addition, the “tumor growth delay equivalent, LCK” value in data set [2] (paclitaxel 40 mg/kg/day, in two experiments) was 0.7-1.0 LCK. Moreover, in data set [2] (paclitaxel at both doses tested, 25 and 40 mg/kg/day), the “tolerability and activity as single agent” value was “tolerated and active”.
For `CC(=O)[O][Pt]([NH2])([Cl])([Cl])([NH]C1CCCCC1)[O]C(C)=O` [Satraplatin, satraplatin], the “Max % BW loss” value in data set [1] (satraplatin 25 mg/kg po d8-12, d15-19) stood at 6.1%; in data set [1] (satraplatin 35 mg/kg po d8-12, d15-19) it was 9.7%; in data set [2] (setting [8]), 12%; in data set [2] (setting [9]) it was 16%; in data set [2] (setting [10]) it was 26%. Besides, the “Toxic Deaths” value in data set [1] (satraplatin 25 mg/kg po d8-12, d15-19, of 10 animals) was found to be 0; in data set [1] (satraplatin 35 mg/kg po d8-12, d15-19, of 10 animals) it was 1. Further, the Toxic deaths/total in data set [2] (setting [8]) is recorded as 0/10; in data set [2] (setting [9]), 4/10; in data set [2] (setting [10]), 9/10.
